Assay [1] can be described thus: inhibitors of intracellular T. cruzi replication, confirmation, NIH3T3 host cells, beta-gal luminescence (AID 2044).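 Further: intracellular parasites grown in NIH/3T3 mouse fibroblasts as host cells; luminescent beta-galactosidase reporter signal from transgenic T. cruzi replicating inside host cells; inhibitors lower the luminescence signal.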 The format is functional, cell-based.
Assay [2] in a line: cytotoxicity toward NIH3T3 fibroblasts, dose response, counter-screen, cell-based, ATP luminescence, mouse fibroblasts (AID 2010).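 Further: cells exposed to compound for about 90 hours before reading.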 The format is functional. Background: Counterscreens check selectivity or assay interference.
The target in assay [3] is T1, Acyl-homoserine lactone acylase PvdQ (Pseudomonas aeruginosa (strain LESB58), UniProt Q9I194).
T1 sequence (Q9I194 whole entry): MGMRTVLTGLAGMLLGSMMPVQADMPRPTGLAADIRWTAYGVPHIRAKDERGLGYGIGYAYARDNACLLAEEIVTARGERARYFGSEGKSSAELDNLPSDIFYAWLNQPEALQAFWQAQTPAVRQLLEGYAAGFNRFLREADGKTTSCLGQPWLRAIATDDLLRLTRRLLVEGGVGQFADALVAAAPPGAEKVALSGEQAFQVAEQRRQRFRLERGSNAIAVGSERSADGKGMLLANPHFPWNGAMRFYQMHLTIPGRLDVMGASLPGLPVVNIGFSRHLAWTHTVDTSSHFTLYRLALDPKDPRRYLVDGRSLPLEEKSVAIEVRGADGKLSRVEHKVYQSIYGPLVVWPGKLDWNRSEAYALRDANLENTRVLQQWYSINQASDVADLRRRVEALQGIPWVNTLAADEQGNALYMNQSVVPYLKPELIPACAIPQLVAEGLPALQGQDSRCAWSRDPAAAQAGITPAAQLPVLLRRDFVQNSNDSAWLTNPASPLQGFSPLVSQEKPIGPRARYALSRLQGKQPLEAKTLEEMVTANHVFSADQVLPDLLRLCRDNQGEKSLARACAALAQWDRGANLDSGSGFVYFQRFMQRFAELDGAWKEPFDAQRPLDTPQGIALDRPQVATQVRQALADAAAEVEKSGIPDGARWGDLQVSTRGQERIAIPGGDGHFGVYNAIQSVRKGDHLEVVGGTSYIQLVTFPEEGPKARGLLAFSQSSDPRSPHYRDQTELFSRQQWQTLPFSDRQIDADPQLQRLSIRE
As to the kind of experiment: P. aeruginosa PvdQ acylase inhibitors, dose response, biochemical, fluorescence, plate reader and imaging, cherry-picks (AID 493231).

The nature of assay [4]: enhancers of respiration in Yfh1-depleted yeast, dose response, Friedreich's ataxia, plus single-dose screen (AID 1465).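 Further: yeast depleted of Yfh1p frataxin homolog grown on glycerol needing respiration; WST-1 tetrazolium dye reduction as measure of cellular dehydrogenase metabolic activity.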 Format: functional.
For the next assay, the system named is HT-1080. Kind of assay: cytotoxicity in HT1080 fibrosarcoma cells, cell-based, fluorescence readout (AID 620). The format is functional. The conditions noted are these: Homo sapiens.
A short description of assay [5]: HepG2 cell cytotoxicity, dose response, cytotoxicity control, plate reader, cherry-pick, antagonist series (AID 743416). Format: functional, cell-based.
A short description of assay [6]: MC4R antagonists, dose response, counter-screen for LGR2 antagonist project, cell-based, plate reader, cherry pick (AID 743444).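 Further: transfected HEK 293 cells stimulated with alpha-MSH peptide; potency of inhibitors of the alpha-MSH evoked signal.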 The format is functional.
Assay [7] can be described thus: LGR2 antagonists, dose response, cell-based, HEK293, CRE-luciferase reporter, cherry pick, set 2 (AID 743343).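 Further: transfected cells were stimulated with diluted bursicon conditioned medium after compound addition.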 The format is functional. (A reporter such as luciferase makes a cellular process visible.)
Assay [8] addresses Luciferin 4-monooxygenase (Photinus pyralis, UniProt P08659). As to the kind of experiment: Counter Screen for Luciferase-based Assay Positives. [Related pubchem assays: 620, 618, 411 ].
Assay [9] addresses T2, Lytic switch protein BZLF1 (Epstein-Barr virus (strain B95-8) (HHV-4) (Human herpesvirus 4), UniProt P03206).
T2 sequence (P03206 whole entry): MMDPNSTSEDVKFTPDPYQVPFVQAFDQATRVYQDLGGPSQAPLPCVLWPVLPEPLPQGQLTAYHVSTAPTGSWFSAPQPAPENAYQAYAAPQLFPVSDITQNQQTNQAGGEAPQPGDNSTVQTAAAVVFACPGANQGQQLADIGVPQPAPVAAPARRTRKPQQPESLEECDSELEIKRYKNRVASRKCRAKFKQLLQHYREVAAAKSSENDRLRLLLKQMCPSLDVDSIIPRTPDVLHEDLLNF
As to the kind of experiment: EBV ZTA inhibitors, dose response, counter-screen for EBNA-1 inhibitor project, biochemical, fluorescence polarization, Epstein-Barr virus, 1536-well (AID 2377).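 Further: fluorescence polarization of Cy5-labelled ZRE DNA probe bound by purified Zta.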 Also noted: species or system human gammaherpesvirus 4.

The target of assay [10] is T3, Epstein-Barr nuclear antigen 1 (Epstein-Barr virus (strain B95-8) (HHV-4) (Human herpesvirus 4), UniProt P03211).
T3 sequence (P03211 whole entry): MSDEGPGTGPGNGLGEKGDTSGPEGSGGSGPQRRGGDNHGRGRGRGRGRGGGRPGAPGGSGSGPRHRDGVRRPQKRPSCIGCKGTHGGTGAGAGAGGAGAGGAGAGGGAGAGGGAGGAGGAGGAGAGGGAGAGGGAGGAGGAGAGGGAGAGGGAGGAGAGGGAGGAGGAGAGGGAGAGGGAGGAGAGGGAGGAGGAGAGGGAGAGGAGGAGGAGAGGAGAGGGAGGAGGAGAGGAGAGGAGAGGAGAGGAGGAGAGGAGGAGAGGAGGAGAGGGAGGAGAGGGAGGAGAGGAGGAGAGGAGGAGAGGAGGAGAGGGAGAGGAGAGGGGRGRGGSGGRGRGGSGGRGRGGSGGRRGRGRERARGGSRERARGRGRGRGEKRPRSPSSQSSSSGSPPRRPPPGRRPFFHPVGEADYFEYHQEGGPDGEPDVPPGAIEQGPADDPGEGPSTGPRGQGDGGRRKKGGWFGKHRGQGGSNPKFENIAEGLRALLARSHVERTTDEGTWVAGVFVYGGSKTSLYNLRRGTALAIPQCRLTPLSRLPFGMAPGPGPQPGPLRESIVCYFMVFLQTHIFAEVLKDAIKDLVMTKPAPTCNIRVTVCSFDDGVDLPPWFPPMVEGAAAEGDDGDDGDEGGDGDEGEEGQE
Kind of assay: EBNA-1 inhibitors, dose response, biochemical, fluorescence polarization, 1536-well (AID 2381).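 Further: fluorescence polarization of a Cy5 DNA probe bound by EBNA-1 protein.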 Also noted: species or system human gammaherpesvirus 4. Background: In fluorescence polarisation assays a small probe gives low polarisation when free and higher when bound to something large.

The target in assay [11] is T4, Short transient receptor potential channel 4 (Mus musculus, UniProt Q9QUQ5).
T4 sequence (Q9QUQ5 whole entry): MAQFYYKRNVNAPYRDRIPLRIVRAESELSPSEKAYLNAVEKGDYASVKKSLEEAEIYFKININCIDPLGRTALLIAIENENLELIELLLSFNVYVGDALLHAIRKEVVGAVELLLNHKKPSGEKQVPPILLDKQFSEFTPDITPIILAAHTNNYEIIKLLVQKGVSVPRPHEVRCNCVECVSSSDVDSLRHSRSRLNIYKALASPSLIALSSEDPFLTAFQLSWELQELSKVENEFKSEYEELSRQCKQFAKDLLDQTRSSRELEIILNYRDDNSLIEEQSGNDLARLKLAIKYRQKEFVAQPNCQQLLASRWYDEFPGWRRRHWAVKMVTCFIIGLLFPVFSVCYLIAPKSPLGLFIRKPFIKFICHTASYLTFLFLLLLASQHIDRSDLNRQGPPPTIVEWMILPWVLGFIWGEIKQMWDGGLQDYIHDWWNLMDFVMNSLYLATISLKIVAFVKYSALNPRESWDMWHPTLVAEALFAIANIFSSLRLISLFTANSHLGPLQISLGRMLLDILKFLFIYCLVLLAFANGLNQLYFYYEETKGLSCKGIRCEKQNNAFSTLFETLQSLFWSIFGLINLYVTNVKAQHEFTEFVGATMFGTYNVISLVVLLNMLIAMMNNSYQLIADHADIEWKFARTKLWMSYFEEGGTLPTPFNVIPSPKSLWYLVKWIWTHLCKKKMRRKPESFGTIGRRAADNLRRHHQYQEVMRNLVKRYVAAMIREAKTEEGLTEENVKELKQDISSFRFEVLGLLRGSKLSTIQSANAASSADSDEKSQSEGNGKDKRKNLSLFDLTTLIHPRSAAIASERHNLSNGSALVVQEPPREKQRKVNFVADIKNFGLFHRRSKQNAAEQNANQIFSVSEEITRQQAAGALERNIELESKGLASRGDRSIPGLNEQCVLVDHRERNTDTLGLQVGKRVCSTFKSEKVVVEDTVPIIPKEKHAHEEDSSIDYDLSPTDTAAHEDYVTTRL
As to the kind of experiment: mouse TRPC4 channel inhibitors, dose response, cell-based, HEK293 TRPC4/mu-opioid, Fluo-4 calcium (AID 434942).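 Further: potency of inhibitors blocking the TRPC4 calcium response.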 The format is functional.

The target of the next assay is Prothrombin (Homo sapiens, UniProt P00734). Kind of assay: Thrombin 1536 HTS Dose Response Confirmation. [Related pubchem assays: 1046 (Thrombin 1536 HTS; hits were confirmed in this assay)]. The format is functional.

Active and inactive are the calls of the source. Some results are limits rather than exact numbers.

Luciferin 4-monooxygenase, sequence (P08659 whole entry): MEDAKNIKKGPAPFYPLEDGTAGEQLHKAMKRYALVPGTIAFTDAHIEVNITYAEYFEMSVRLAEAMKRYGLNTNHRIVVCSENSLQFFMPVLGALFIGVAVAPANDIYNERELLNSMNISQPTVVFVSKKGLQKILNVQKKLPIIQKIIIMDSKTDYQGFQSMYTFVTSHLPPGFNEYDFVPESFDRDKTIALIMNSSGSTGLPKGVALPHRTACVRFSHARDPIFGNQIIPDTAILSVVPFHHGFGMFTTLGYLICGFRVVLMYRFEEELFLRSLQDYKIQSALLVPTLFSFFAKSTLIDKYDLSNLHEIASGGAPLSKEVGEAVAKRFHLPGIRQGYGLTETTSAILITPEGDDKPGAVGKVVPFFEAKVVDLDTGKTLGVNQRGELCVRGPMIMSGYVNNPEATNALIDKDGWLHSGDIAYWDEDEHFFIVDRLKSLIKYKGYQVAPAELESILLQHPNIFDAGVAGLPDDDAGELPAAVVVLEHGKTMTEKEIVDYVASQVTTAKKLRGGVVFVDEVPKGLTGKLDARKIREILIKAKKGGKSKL

In general, EC50 refers to the midpoint of the concentration-response curve. Turning to `CC(C)=CCCC(C)CN1CCC(n2nccc2NC(=O)c2ccc3c(c2)OCO3)CC1` (stereo not given), the EC50 in the assay “cells” is > 10 µM (not active); in assay [1] it was < 0.1 µM (active); in assay [2] it was 9.11 µM (active).
A word on the AC50: it is the concentration giving half of the maximal activity seen. As for `COC(=O)c1cc(-c2cccc(OC)c2)on1`, the AC50 in assay [3] was > 100 µM (inactive).
As for `CN1C(=O)C(=Cc2ccc(N3CCOCC3)o2)C(=O)N(C)C1=O`, the half-maximal effective concentration (EC50) in assay [4] was > 100 µM (active).
As to `Oc1c2c(nc3cc(-c4ccc(F)cc4)nn13)CCCC2`, the EC50 in the assay on HT-1080 was 33.8 µM (active); in [8], 79.7 µM (active). For the same compound, the AC50 in [5] was > 52 µM (inactive); in assay [6] it was 6.58 µM (active); in assay [7], 7.51 µM (active).
As usually defined, the IC50 is the concentration that inhibits the measured activity by half. Consider `Cc1ccc(NC(=O)CSc2ccc(-c3ccc4c(c3)OCO4)nn2)cc1F`, for which the IC50 was > 111 µM (not active) in assay [9] and 4.44 µM (active) in assay [10].
On to `CCn1c(=O)n(CCOC)c(=O)c2c3c(sc21)CCCC3`, for which the EC50 in assay [11] is 1.19 µM (active).
On to `N#Cc1c(/N=C/c2ccco2)sc2c1CCC2`, for which, on Prothrombin, the IC50 was > 50 µM (not active).
As to `Nc1nc(-c2ccco2)nn1C(=O)c1ccccc1Cl`, the IC50 on Prothrombin was 14 µM (active).
